Measurements reported in paper PMC5216056 (Nature Communications, 2017).
Where “and” joins values, the source holds several entries; their conditions need not be identical. Equal entries are not always repeated. Where two headings read alike, the source gives them in different places.

Columns and labels:
[1] = biological target: T1, hCB1R (Homo sapiens, UniProt P21554); test: cell-based; details: for Emax: read-out: Emax ± SEM cAMP hCB1R
T1 construct: host or cells: CHO

[2] = biological target: T2, FAAH (Homo sapiens, UniProt O00519); test: FAAH activity, U937 cell homogenate; assay type: biochemical; details: for inhibition at 5 µM: read-out: FAAH % inhibition at 5 µM
T2 construct: host or cells: U937
T2 sequence (O00519 1-579): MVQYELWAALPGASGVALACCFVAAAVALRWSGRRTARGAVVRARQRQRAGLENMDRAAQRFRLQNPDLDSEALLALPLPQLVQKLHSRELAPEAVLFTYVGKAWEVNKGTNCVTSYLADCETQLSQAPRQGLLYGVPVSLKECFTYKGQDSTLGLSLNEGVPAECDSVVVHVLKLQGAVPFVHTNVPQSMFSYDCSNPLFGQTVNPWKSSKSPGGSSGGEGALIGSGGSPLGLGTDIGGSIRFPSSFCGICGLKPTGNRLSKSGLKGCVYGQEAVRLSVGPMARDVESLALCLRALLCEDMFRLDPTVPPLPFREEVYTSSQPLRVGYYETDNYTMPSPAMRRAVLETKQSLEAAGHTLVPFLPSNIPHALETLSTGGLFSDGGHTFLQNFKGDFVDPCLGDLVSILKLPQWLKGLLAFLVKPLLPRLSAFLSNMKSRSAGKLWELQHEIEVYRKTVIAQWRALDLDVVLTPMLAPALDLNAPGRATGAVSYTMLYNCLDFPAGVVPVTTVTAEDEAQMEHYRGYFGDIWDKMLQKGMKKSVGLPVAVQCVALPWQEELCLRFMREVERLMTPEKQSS
Description: FAAH activity was assessed using U937 cell homogenate (source: U937 cells were purchased from ATCC, Manassas, VA, USA). Tested compounds (at the concentrations of 1 and 5 μM) or solvent (≤1% of the final volume) were pre-incubated at 37 °C for 30 min with 100 μg of cell homogenate diluted in assay buffer (10 mM Tris-HCl and 1 mM EDTA, pH 7.6 and 1% w/v fatty acid-free BSA). Successively, a mixture of 99.5 nM […] of AEA and 0.5 nM of [ethanolamine-1-3H]-AEA (40–60 Ci mmol^−1) was added to the homogenate (final concentration of 100 nM) and incubated for 10 min at 37 °C under shaking. After the incubation time, 2 volumes of an ice-cold methanol: chloroform mixture 1:1 (v/v) were added to each sample, vigorously vortexed and centrifuged at 10,000g for 10 min at 4 °C to separate aqueous and organic phases. The aqueous phases were collected and the radioactivity associated with the hydrolysis product [3H]-ethanolamine was measured after addition of 3 ml of scintillation cocktail using the Tri-Carb 2100 TR scintillation counter. Data were collected from three independent experiments performed in triplicate and results were expressed as FAAH activity, relative to that in vehicle-treated samples (=100%).

[3] = biological target: T3, hABHD12 (Homo sapiens, UniProt Q8N2K0); test: ABHD12 activity; assay type: biochemical; details: for ABHD12 % inhibition: single point
T3 construct: expressed in transfected cells
T3 sequence (Q8N2K0 1-398): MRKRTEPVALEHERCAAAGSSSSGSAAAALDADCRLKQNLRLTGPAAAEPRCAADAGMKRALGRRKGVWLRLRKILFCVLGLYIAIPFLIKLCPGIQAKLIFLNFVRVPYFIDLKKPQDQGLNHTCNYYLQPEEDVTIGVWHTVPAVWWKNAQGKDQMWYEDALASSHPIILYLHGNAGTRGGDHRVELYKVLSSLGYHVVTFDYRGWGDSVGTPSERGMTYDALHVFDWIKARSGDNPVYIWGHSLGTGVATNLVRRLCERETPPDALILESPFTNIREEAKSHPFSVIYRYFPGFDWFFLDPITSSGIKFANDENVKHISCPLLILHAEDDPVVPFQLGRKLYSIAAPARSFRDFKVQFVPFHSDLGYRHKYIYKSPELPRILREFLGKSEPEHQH
Text: HEK293T cells were obtained from American Type Culture Collection (ATCC, Manassas, VA, USA). Lipofectamine 2000 was obtained from Life Technologies (Carlsbad, CA, USA) and geneticin from InvivoGen. Cell culture medium, FBS, and cell culture supplements were from Invitrogen (Carlsbad, CA, USA). pCMV6-AC-hABHD6 and pCMV6-XL4-hABHD12 were a kind gift from Prof Jarmo T. Laitinen. hABHD12 sequence was subsequently inserted in a pcDNA3.1 plasmid in order to generate a stable cell line. The effect of CB2R ligands on ABHD6 and ABHD12 hydrolytic activity was determined using cell homogenate from hABHD6 and hABHD12 overexpressing HEK293T cells (40 μg total protein per condition). Samples were pre-incubated with the compounds (10 μM in the screening assay and concentrations in the range 1 nM—50 μM for the dose-response curves) in […] (pH=7.6) buffer containing 0.1%(w/v) BSA. DMSO was used as vehicle control and WWL70 10 μM or THL 20 μM as positive controls. [^3H]-2-OG (10 μM final concentration) was added and after incubation of 5 min at 37 °C, the reaction was stopped by the addition of 400 μl of ice-cold CHCl3:MeOH (1:1). The samples were vortex and centrifuged (16,100g 10 min 4 °C). Aliquots (200 μl) of the aqueous phase were assayed for tritium content by liquid scintillation spectroscopy. The values obtained for each measurement were corrected for non-specific hydrolysis (non-ABHD6 mediated) by subtracting the signal obtained in the hydrolysis of [^3H]- 2-OG by non-transfected HEK293T.

[4] = read-out: ABHD12 IC50 (95% CI), full dose-response

T1 sequence (P21554 whole entry): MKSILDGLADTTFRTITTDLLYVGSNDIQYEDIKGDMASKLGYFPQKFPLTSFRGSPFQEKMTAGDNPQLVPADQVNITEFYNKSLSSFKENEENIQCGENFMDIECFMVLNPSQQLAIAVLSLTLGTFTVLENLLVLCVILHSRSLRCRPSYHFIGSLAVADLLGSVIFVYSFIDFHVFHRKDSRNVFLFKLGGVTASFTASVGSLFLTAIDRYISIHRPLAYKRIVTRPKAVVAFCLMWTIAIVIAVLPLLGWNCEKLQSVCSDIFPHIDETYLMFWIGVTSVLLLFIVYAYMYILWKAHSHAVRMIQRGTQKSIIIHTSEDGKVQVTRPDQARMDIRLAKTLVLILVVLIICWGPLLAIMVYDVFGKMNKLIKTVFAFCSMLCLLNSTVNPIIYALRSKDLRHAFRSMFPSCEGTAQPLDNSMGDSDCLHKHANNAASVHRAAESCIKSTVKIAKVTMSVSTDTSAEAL

Q: With CN1CCCCC1Cn1cc(C(=O)c2cc([N+](=O)[O-])ccc2I)c2ccccc21 (racemic) [(rac)-AM1241] as the compound, how does the “pEC50 ± SEM cAMP hCB1R” value [1] read?
A: < 5

Q: For CCCCC/C=C\C/C=C\C/C=C\C/C=C\CCCC(=O)OC(CO)CO [2-AG, 2-arachidonoyl glycerol], which Emax [1] is on record?
A: < 70%

Q: CN1CCCC[C@@H]1Cn1cc(C(=O)c2cc([N+](=O)[O-])ccc2I)c2ccccc21 [(R)-AM1241] was tested. Which “FAAH % inhibition at 5 µM” value ([2]; 5 µM, U937 cell homogenate) did it give?
A: < 25%

Q: And the ABHD12 % inhibition ([3]; 10 5 µM [sic])?
A: < 25%

Q: What about the “Emax ± SEM cAMP hCB1R” value [1] of the same compound?
A: 54 ± 7

Q: What about the “pEC50 ± SEM cAMP hCB1R” value [1] of the same compound?
A: 6.17 ± 0.12

Q: Which results are given for CN1CCCC[C@H]1Cn1cc(C(=O)c2cc([N+](=O)[O-])ccc2I)c2ccccc21 [(S)-AM1241]?
A: FAAH % inhibition at 5 µM ([2]; 5 µM, U937 cell homogenate): < 25%; ABHD12 % inhibition ([3]; 10 5 µM [sic]): < 25%; Emax ± SEM cAMP hCB1R [1]: 16 ± 2; pEC50 ± SEM cAMP hCB1R [1]: < 5

Q: With Cc1c(C(=O)NN2CCCCC2)nn(-c2ccc(Cl)cc2Cl)c1-c1ccc(I)cc1 [AM251] as the compound, how does the “FAAH % inhibition at 5 µM” value ([2]; 5 µM, U937 cell homogenate) read?
A: < 50% and 30–40%

Q: What about the IC50 [3, 4] of the same compound?
A: 1600 nM

Q: Which ABHD12 % inhibition ([3]; 10 5 µM [sic]) does the source give for COc1ccc(C(=O)c2c(C)n(CCN3CCOCC3)c3cc(I)ccc23)cc1 [AM630] here?
A: < 25%

Q: With Cc1ccc2c(c1)Cc1c(C(=O)NN3CCCCC3)nn(-c3ccc(Cl)cc3Cl)c1-2 [Gp-1a] as the compound, how does the “FAAH % inhibition at 5 µM” value ([2]; 5 µM, U937 cell homogenate) read?
A: < 50% and 30–40%

Q: What about the IC50 [3, 4] of the same compound?
A: 800 nM

Q: And the “Emax ± SEM cAMP hCB1R” value [1]?
A: 19 ± 5

Q: What about the “pEC50 ± SEM cAMP hCB1R” value [1] of the same compound?
A: < 5

Q: For CCCCCCC(C)(C)c1cc(OC)c([C@@H]2C=C(CO)[C@@H]3C[C@H]2C3(C)C)c(OC)c1 [HU308], which inhibition at 5 µM [2] is on record?
A: < 25%

Q: And the EC50 ([1]; pEC50 ± SEM cAMP hCB1R)?
A: > 10000 nM

Q: And the Emax [1]?
A: 18 ± 4%

Q: Which “FAAH % inhibition at 5 µM” value ([2]; 5 µM, U937 cell homogenate) does the source give for CCCCCCC(C)(C)c1cc(OC)c(C2=C[C@H]3CC[C@]2(CO)C3(C)C)c(OC)c1 [HU910] here?
A: < 25%

Q: And the ABHD12 % inhibition ([3]; 10 5 µM [sic])?
A: < 25%

Q: What about the “Emax ± SEM cAMP hCB1R” value [1] of the same compound?
A: 28 ± 8

Q: And the “pEC50 ± SEM cAMP hCB1R” value [1]?
A: < 5

Q: How did the “Emax ± SEM cAMP hCB1R” value [1] turn out when CCCC(C)(C)c1ccc2c(c1)OC(C)(C)[C@@H]1CC=C(C)C[C@@H]21 [JWH133] was run?
A: 37 ± 6

Q: What about the “pEC50 ± SEM cAMP hCB1R” value [1] of the same compound?
A: < 5

Q: Which inhibition at 5 µM ([2]; 5 µM, U937 cell homogenate) does the source give for Cc1c(C(=O)NN2CCCCC2)nn(-c2ccc(Cl)cc2Cl)c1-c1ccc(Cl)cc1 [SR141716A] here?
A: < 25%

Q: And the IC50 [3]?
A: 6100 nM

Q: What does the source list for Cc1c(C(=O)c2cccc3ccccc23)c2cccc3c2n1[C@H](CN1CCOCC1)CO3 [WIN55212-2]?
A: FAAH % inhibition at 5 µM ([2]; 5 µM, U937 cell homogenate): < 25%; ABHD12 % inhibition ([3]; 10 5 µM [sic]): < 50%

Q: For SR144528, which ABHD12 % inhibition [3] is on record?
A: < 25%
